Laboratory results reported in the supplement of paper PMC10307832.

Experiments:
Test in all cases: relative viability (nuclei count vs DMSO), 5 days (fraction); higher = more cells survive
[1] = compound: C[C@]12O[C@H](C[C@]1(O)CO)n1c3ccccc3c3c4c(c5c6ccccc6n2c5c31)CNC4=O [Lestaurtinib] + C[C@@H](Oc1cc(-c2cnn(C3CCNCC3)c2)cnc1N)c1c(Cl)ccc(F)c1Cl [Crizotinib] (partner 1 µM)
Summary of the method: (§1)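 Five library-drug doses in √10 steps were combined with a fixed anchor-drug dose, or a single drug was given alone, by pin tool to lung cancer cell lines in 1536-well plates the day after seeding. Nuclei were stained and counted after 5 days. Relative viability is the nuclei count in treated wells over that in vehicle wells, taken as the median of duplicate plates.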

[2] = compound: C1=CC(=CC=C1C2=CC(=C(S2)NC(=O)N)C(=O)N)F [TPCA-1] + Cc1nc(NC(=O)N2CCC[C@H]2C(N)=O)sc1-c1ccnc(C(C)(C)C(F)(F)F)c1 [Alpelisib] (partner 2 µM)
Summary of the method: as §1

[3] = compound: C1/C(=C\C2=CC=CS2)/C(=O)/C(=C/C3=CC=CS3)/C1 + CC(=O)c1c(C)c2cnc(Nc3ccc(N4CCNCC4)cn3)nc2n(C2CCCC2)c1=O [Palbociclib] (partner 0.5 µM)
Summary of the method: as §1

[4] = compound: C1/C(=C\C2=CC=CS2)/C(=O)/C(=C/C3=CC=CS3)/C1 + CCNC(=O)c1noc(-c2cc(C(C)C)c(O)cc2O)c1-c1ccc(CN2CCOCC2)cc1 [Luminespib] (partner 0.01 µM)
Summary of the method: as §1

Cell Line: UMC-11
- relative viability ([1]; first compound 0.005 µM): 0.5
- relative viability ([1]; first compound 0.01581 µM): 0.6
- relative viability ([1]; first compound 0.05 µM): 0.416
- relative viability ([1]; first compound 0.1581 µM): 0.248
- relative viability ([1]; first compound 0.5 µM): 0.107
- relative viability ([2]; first compound 0.04 µM): 0.988
- relative viability ([2]; first compound 0.1265 µM): 0.946
- relative viability ([2]; first compound 0.4 µM): 1.05
- relative viability ([2]; first compound 1.265 µM): 0.96
- relative viability ([2]; first compound 4 µM): 0.731
- relative viability ([3]; first compound 0.2 µM): 0.308
- relative viability ([3]; first compound 0.6325 µM): 0.367
- relative viability ([3]; first compound 2 µM): 0.322
- relative viability ([3]; first compound 6.325 µM): 0.334
- relative viability ([3]; first compound 20 µM): 0.338
- relative viability ([4]; first compound 0.2 µM): 1.02
- relative viability ([4]; first compound 0.6325 µM): 0.978
- relative viability ([4]; first compound 20 µM): 1.05
